Assays:
[1] = biological target: Myosin light chain kinase 2, skeletal/cardiac muscle (Homo sapiens) (UniProt Q9H1R3); experiment: Inhibition of human recombinant skMLCK at 40 nM in presence of ATP by radiometric assay relative to control
[2] = biological target: Calcium/calmodulin-dependent protein kinase type II subunit delta (Homo sapiens) (UniProt Q13557); experiment: Inhibition of human recombinant CaMK2d at 15 nM in presence of ATP by radiometric assay relative to control
[3] = biological target: T1, Ephrin type-B receptor 2 (Homo sapiens) (UniProt P29323); experiment: Inhibition of human recombinant EphB2 at 15 nM in presence of ATP by radiometric assay relative to control
T1 sequence (whole entry): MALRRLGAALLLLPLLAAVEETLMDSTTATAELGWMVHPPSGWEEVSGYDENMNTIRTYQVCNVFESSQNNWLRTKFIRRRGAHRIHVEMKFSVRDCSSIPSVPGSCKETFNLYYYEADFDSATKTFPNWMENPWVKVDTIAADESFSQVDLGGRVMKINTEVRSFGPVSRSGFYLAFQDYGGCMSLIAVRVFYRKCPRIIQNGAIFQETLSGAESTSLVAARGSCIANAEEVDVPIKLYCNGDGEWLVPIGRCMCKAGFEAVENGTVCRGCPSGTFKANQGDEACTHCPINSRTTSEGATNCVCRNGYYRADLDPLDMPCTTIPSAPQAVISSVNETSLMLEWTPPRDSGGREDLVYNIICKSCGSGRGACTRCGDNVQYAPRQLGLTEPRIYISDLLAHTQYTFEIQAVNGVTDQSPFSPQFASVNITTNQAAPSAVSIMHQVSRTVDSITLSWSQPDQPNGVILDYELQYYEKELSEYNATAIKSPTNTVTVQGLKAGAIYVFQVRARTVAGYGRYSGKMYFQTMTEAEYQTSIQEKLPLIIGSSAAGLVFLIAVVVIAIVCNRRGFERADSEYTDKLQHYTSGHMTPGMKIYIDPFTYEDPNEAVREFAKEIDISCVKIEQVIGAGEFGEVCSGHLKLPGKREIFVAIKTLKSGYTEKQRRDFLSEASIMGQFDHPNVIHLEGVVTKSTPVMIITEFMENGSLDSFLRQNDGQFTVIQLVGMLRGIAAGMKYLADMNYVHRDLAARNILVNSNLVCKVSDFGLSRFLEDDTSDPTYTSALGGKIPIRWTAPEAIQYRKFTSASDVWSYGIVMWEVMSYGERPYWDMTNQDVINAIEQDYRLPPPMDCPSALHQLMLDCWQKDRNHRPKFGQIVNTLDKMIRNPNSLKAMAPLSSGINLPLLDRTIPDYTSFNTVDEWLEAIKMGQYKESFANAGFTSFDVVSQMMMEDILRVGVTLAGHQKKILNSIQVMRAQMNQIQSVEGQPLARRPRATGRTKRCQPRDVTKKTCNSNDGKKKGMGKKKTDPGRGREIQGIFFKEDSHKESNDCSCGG

[4] = biological target: Calcium/calmodulin-dependent protein kinase type 1 (Homo sapiens) (UniProt Q14012); experiment: Inhibition of human recombinant CaMK1a at 15 nM related to control ULK1
Sequence of Calcium/calmodulin-dependent protein kinase type 1 (Homo sapiens) (Q14012 whole entry, looked up): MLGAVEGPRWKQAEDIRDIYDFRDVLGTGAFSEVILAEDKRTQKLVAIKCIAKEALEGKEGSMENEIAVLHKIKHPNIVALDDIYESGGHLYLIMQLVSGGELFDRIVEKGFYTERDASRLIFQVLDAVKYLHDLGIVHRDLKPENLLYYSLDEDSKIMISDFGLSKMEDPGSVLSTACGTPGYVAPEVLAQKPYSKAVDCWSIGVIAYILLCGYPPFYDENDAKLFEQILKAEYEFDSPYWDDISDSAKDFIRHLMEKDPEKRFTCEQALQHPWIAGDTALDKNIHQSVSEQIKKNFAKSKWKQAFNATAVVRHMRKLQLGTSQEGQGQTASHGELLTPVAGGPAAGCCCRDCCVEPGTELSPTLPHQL

[5] = biological target: Serine/threonine-protein kinase pim-3 (Homo sapiens) (UniProt Q86V86); experiment: Inhibition of human recombinant PIM3 at 15 nM related to control ULK1
[6] = biological target: Serine/threonine-protein kinase 25 (Homo sapiens) (UniProt O00506); experiment: Inhibition of human recombinant YSK1 at 15 nM related to control ULK1
Sequence of Serine/threonine-protein kinase 25 (Homo sapiens) (O00506 whole entry, looked up): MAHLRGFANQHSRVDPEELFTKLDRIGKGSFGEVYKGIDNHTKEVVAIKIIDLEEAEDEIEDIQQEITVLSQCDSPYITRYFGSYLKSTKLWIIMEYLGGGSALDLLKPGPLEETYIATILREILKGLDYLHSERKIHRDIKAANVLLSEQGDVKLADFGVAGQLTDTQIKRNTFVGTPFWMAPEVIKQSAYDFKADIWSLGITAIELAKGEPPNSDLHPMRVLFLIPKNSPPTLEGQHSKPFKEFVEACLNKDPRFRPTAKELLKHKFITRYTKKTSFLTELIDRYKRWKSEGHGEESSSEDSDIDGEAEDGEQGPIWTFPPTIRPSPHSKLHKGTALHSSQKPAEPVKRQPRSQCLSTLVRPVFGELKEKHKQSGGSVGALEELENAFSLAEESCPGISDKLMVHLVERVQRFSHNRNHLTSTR

[7] = biological target: Cell division cycle 7-related protein kinase (Homo sapiens) (UniProt O00311); experiment: Inhibition of human recombinant CDC7 at 500 nM in presence of ATP by radiometric assay relative to control
Sequence of Cell division cycle 7-related protein kinase (Homo sapiens) (O00311 whole entry, looked up): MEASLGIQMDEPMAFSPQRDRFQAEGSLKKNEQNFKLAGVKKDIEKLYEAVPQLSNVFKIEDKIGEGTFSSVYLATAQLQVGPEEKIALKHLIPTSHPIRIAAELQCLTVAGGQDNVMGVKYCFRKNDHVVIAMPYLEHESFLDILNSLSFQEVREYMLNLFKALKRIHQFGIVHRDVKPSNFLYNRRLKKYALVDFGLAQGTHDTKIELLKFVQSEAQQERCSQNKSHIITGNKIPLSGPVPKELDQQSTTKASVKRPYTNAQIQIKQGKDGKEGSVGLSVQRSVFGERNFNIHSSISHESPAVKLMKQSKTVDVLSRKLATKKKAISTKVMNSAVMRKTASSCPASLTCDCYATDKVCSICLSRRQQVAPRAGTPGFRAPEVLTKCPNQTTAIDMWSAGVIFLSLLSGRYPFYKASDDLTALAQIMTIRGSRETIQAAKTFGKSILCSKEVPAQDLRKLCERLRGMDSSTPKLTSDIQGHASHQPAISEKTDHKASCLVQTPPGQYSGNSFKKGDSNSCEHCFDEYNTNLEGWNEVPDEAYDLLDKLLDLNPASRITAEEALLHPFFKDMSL

[8] = biological target: T2, Tyrosine-protein kinase receptor TYRO3 (Homo sapiens) (UniProt Q06418); experiment: Inhibition of human recombinant TYRO3 at 500 nM in presence of ATP by radiometric assay relative to control
T2 sequence (whole entry): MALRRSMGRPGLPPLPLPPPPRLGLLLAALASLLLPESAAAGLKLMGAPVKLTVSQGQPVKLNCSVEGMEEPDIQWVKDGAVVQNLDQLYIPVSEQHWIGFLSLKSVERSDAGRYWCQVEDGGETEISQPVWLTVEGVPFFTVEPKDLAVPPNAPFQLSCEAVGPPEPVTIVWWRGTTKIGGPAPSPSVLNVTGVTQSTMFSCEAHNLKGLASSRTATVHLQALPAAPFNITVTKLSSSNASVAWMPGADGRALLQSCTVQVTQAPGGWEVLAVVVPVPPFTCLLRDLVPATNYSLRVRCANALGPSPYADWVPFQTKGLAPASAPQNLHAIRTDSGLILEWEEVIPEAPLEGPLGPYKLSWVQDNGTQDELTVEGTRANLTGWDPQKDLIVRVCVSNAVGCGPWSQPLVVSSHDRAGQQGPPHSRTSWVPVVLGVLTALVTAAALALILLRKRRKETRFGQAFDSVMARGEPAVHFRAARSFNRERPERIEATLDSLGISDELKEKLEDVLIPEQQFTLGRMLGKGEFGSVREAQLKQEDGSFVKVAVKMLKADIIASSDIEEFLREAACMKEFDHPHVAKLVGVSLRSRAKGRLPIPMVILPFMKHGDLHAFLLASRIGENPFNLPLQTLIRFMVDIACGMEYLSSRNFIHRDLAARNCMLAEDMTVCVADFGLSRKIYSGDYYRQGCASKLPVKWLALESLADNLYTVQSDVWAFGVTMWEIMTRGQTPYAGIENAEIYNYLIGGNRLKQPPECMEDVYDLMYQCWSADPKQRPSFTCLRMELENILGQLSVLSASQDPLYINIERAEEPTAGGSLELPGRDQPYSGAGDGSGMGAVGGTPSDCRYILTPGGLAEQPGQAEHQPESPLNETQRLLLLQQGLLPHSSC

Sequence of Calcium/calmodulin-dependent protein kinase type II subunit delta (Homo sapiens) (Q13557 whole entry): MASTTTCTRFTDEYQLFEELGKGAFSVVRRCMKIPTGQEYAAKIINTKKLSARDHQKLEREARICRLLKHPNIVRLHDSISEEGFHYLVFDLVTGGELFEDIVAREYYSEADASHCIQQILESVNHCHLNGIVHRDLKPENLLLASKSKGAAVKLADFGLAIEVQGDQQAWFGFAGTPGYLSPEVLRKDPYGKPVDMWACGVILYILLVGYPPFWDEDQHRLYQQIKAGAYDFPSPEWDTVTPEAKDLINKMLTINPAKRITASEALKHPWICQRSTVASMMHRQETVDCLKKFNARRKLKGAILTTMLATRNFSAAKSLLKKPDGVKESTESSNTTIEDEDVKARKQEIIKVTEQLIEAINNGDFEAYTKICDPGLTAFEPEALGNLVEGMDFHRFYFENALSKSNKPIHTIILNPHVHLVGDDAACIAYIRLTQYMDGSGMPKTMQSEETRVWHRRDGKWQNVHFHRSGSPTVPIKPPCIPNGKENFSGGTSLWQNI
Sequence of Myosin light chain kinase 2, skeletal/cardiac muscle (Homo sapiens) (Q9H1R3 whole entry): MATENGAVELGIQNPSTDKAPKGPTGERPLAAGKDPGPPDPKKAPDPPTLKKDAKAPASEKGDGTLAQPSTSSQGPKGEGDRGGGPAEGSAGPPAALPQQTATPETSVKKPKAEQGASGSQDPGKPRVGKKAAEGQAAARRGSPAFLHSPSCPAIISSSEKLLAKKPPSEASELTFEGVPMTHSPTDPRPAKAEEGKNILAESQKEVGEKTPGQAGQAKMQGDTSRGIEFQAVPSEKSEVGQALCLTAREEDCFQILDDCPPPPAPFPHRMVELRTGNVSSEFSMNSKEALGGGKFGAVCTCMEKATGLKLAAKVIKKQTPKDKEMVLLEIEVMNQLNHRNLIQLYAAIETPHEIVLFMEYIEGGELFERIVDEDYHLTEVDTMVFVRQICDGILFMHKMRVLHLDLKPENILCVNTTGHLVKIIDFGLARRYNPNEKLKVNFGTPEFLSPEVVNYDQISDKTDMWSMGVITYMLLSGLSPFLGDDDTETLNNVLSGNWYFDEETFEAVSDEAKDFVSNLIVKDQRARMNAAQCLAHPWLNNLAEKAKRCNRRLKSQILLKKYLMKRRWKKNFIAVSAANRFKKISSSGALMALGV

O=C(N[C@@H](C1CC1)C(F)(F)F)c1cc(-c2cnn3cc(-c4ccc(F)cc4)cnc23)cs1
inhibition [1]: 0%

CC(C)[C@H](NC(=O)c1cc(-c2cnn3cc(-c4ccc(OCCN5CCCCC5)cc4)cnc23)cs1)C(F)(F)F
inhibition [2]: 20%
inhibition [3]: 7%
fold change (FC) [4]: 0.08
fold change (FC) [5]: 0.02
fold change (FC) [6]: 0

CNC(=O)c1ccccc1Oc1nc(Nc2cc(OC)c(OC)c(OC)c2)ncc1Br
inhibition [7]: 0%
inhibition [8]: 10%
